Results on 16 compounds are retold here after US8802661B2, “C-28 amides of modified C-3 betulinic acid derivatives as HIV maturation inhibitors” (priority 2010, dated 2014).

SMILES strings stand for the structures. A value given as a limit tells only on which side of the number the result lay.

The first assay relates to recombinant NL4-3 virus (Renilla luciferase in nef, Gag P373S). Nature of the assay: HIV Cell Culture Assay (luciferase reporter virus in MT-2 cells). It counts as cell-based. As to conditions: NL43. Summed up: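 Inhibitor potency against the reporter virus comes from reduced luciferase activity in infected MT-2 cells exposed to a dilution series of compound over 4-5 days.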
On the technique in general: In a reporter assay the amount or activity of a reporter protein is the signal.
`C=C(C)[C@@H]1CC[C@]2(C(=O)Nc3ccc(OC)cc3)CC[C@]3(C)[C@H](CC[C@@H]4[C@@]5(C)CC=C(c6ccc(C(=O)O)cc6)C(C)(C)[C@@H]5CC[C@]43C)[C@@H]12` [Example 14, 4-((1R,3aS,5aR,5bR,7aR,11aS,11bR,13aR,13bR)-3a-(4-methoxyphenylcarbamoyl)-5a,5b,8,8,11a-pentamethyl-1-(prop-1-en-2-yl)-2,3,3a,4,5,5a,5b,6,7,7a,8,11,11a,11b,12,13,13a,13b-octadecahydro-1H-cyclopenta[a]chrysen-9-yl)benzoic acid]: the EC50 (in general, the concentration at which the effect is half-maximal) turned out to be 110 nM.

The same assay, now with this note: NL43, read-out: EC50 Group.
Consider `C=C(C)[C@@H]1CC[C@]2(C(=O)Nc3ncc(C(=O)O)s3)CC[C@]3(C)[C@H](CC[C@@H]4[C@@]5(C)CC=C(c6ccc(C(=O)O)cc6)C(C)(C)[C@@H]5CC[C@]43C)[C@@H]12` [Example 50, 2-((1R,3aS,5aR,5bR,7aR,11aS,11bR,13aR,13bR)-9-(4-carboxyphenyl)-5a,5b,8,8,11a-pentamethyl-1-(prop-1-en-2-yl)-2,3,3a,4,5,5a,5b,6,7,7a,8,11,11a,11b,12,13,13a,13b-octadecahydro-1H-cyclopenta[a]chrysene-3a-carboxamido)thiazole-5-carboxylic acid], for which the EC50 was under 100 nM.

Turning to `C=C(C)[C@@H]1CC[C@]2(C(=O)NCC(C)(C)N)CC[C@]3(C)[C@H](CC[C@@H]4[C@@]5(C)CC=C(c6ccc(C(=O)O)cc6)C(C)(C)[C@@H]5CC[C@]43C)[C@@H]12` [Example 38, 4-((1R,3aS,5aR,5bR,7aR,11aS,11bR,13aR,13bR)-3a-(2-amino-2-methylpropylcarbamoyl)-5a,5b,8,8,11a-pentamethyl-1-(prop-1-en-2-yl)-2,3,3a,4,5,5a,5b,6,7,7a,8,11,11a,11b,12,13,13a,13b-octadecahydro-1H-cyclopenta[a]chrysen-9-yl)benzoic acid], the concentration for a half-maximal effect (EC50) was under 100 nM.

Consider `C=C(C)[C@@H]1CC[C@]2(C(=O)NCCCN3CCOCC3)CC[C@]3(C)[C@H](CC[C@@H]4[C@@]5(C)CC=C(c6ccc(C(=O)O)cc6)C(C)(C)[C@@H]5CC[C@]43C)[C@@H]12` [Example 32, 4-((1R,3aS,5aR,5bR,7aR,11aS,11bR,13aR,13bR)-5a,5b,8,8,11a-pentamethyl-3a-(3-morpholinopropylcarbamoyl)-1-(prop-1-en-2-yl)-2,3,3a,4,5,5a,5b,6,7,7a,8,11,11a,11b,12,13,13a,13b-octadecahydro-1H-cyclopenta[a]chrysen-9-yl)benzoic acid], for which the concentration for a half-maximal effect (EC50) is under 100 nM. Still for that read-out and setting: next, `C=C(C)[C@@H]1CC[C@]2(C(=O)NCCN(CCC(=O)O)C(C)C)CC[C@]3(C)[C@H](CC[C@@H]4[C@@]5(C)CC=C(c6ccc(C(=O)O)cc6)C(C)(C)[C@@H]5CC[C@]43C)[C@@H]12` [Example 96, 4-((1R,3aS,5aR,5bR,7aR,11aS,11bR,13aR,13bR)-3a-(2-((2-carboxyethyl)(isopropyl)amino)ethylcarbamoyl)-5a,5b,8,8,11a-pentamethyl-1-(prop-1-en-2-yl)-2,3,3a,4,5,5a,5b,6,7,7a,8,11,11a,11b,12,13,13a,13b-octadecahydro-1H-cyclopenta[a]chrysen-9-yl)benzoic acid]: under 100 nM; `C=C(C)[C@@H]1CC[C@]2(C(=O)NCCN3CCCCC3)CC[C@]3(C)[C@H](CC[C@@H]4[C@@]5(C)CC=C(c6ccc(C(=O)O)cc6)C(C)(C)[C@@H]5CC[C@]43C)[C@@H]12` [Example 33, 4-((1R,3aS,5aR,5bR,7aR,11aS,11bR,13aR,13bR)-5a,5b,8,8,11a-pentamethyl-3a-(2-(piperidin-1-yl)ethylcarbamoyl)-1-(prop-1-en-2-yl)-2,3,3a,4,5,5a,5b,6,7,7a,8,11,11a,11b,12,13,13a,13b-octadecahydro-1H-cyclopenta[a]chrysen-9-yl)benzoic acid]: under 100 nM; `C=C(C)[C@@H]1CC[C@]2(C(=O)NCCCn3ccnc3)CC[C@]3(C)[C@H](CC[C@@H]4[C@@]5(C)CC=C(c6ccc(C(=O)O)cc6)C(C)(C)[C@@H]5CC[C@]43C)[C@@H]12` [Example 86, 4-((1R,3aS,5aR,5bR,7aR,11aS,11bR,13aR,13bR)-3a-(3-(1H-imidazol-1-yl)propylcarbamoyl)-5a,5b,8,8,11a-pentamethyl-1-(prop-1-en-2-yl)-2,3,3a,4,5,5a,5b,6,7,7a,8,11,11a,11b,12,13,13a,13b-octadecahydro-1H-cyclopenta[a]chrysen-9-yl)benzoic acid]: under 100 nM.

With `C=C(C)[C@@H]1CC[C@]2(C(=O)NCCCN3CCS(=O)(=O)CC3)CC[C@]3(C)[C@H](CC[C@@H]4[C@@]5(C)CC=C(c6ccc(C(=O)O)cc6F)C(C)(C)[C@@H]5CC[C@]43C)[C@@H]12` [Example 109, 4-((1R,3aS,5aR,5bR,7aR,11aS,11bR,13aR,13bR)-3a-((3-(1,1-dioxido-4-thiomorpholinyl)propyl)carbamoyl)-1-isopropenyl-5a,5b,8,8,11a-pentamethyl-2,3,3a,4,5,5a,5b,6,7,7a,8,11,11a,11b,12,13,13a,13b-octadecahydro-1H-cyclopenta[a]chrysen-9-yl)-3-fluorobenzoic acid], the half-maximal effective concentration (EC50) was under 100 nM. On the same count and under the same terms, the result for `C=C(C)[C@@H]1CC[C@]2(C(=O)NS(C)(=O)=O)CC[C@]3(C)[C@H](CC[C@@H]4[C@@]5(C)CC=C(c6ccc(C(=O)O)cc6)C(C)(C)[C@@H]5CC[C@]43C)[C@@H]12` [Example 8, 4-((1R,3aS,5aR,5bR,7aR,11aS,11bR,13aR,13bR)-5a,5b,8,8,11a-pentamethyl-3a-(methylsulfonylcarbamoyl)-1-(prop-1-en-2-yl)-2,3,3a,4,5,5a,5b,6,7,7a,8,11,11a,11b,12,13,13a,13b-octadecahydro-1H-cyclopenta[a]chrysen-9-yl)benzoic acid] reads under 100 nM; that for `C=C(C)[C@@H]1CC[C@]2(C(=O)NCCN3CCS(=O)(=O)CC3)CC[C@]3(C)[C@H](CC[C@@H]4[C@@]5(C)CC=C(c6cc(F)c(C(=O)O)c(F)c6)C(C)(C)[C@@H]5CC[C@]43C)[C@@H]12` [Example 121, 4-((1R,3aS,5aR,5bR,7aR,11aS,11bR,13aR,13bR)-3a-((2-(1,1-dioxido-4-thiomorpholinyl)ethyl)carbamoyl)-1-isopropenyl-5a,5b,8,8,11a-pentamethyl-2,3,3a,4,5,5a,5b,6,7,7a,8,11,11a,11b,12,13,13a,13b-octadecahydro-1H-cyclopenta[a]chrysen-9-yl)-2,6-difluorobenzoic acid], under 100 nM; that for `C=C(C)[C@@H]1CC[C@]2(C(=O)NCCN(C)CCOC(=O)CCC(=O)O)CC[C@]3(C)[C@H](CC[C@@H]4[C@@]5(C)CC=C(c6ccc(C(=O)O)cc6)C(C)(C)[C@@H]5CC[C@]43C)[C@@H]12` [Example 115, 4-((1R,3aS,5aR,5bR,7aR,11aS,11bR,13aR,13bR)-3a-(2-((2-(3-carboxypropanoyloxy)ethyl)(methyl)amino)ethylcarbamoyl)-5a,5b,8,8,11a-pentamethyl-1-(prop-1-en-2-yl)-2,3,3a,4,5,5a,5b,6,7,7a,8,11,11a,11b,12,13,13a,13b-octadecahydro-1H-cyclopenta[a]chrysen-9-yl)benzoic acid], under 100 nM.

Consider `C=C(C)[C@@H]1CC[C@]2(C(=O)NCCc3cccnc3)CC[C@]3(C)[C@H](CC[C@@H]4[C@@]5(C)CC=C(c6ccc(C(=O)O)cc6)C(C)(C)[C@@H]5CC[C@]43C)[C@@H]12` [Example 3, 4-((1R,3aS,5aR,5bR,7aR,11aS,11bR,13aR,13bR)-5a,5b,8,8,11a-pentamethyl-1-(prop-1-en-2-yl)-3a-(2-(pyridin-3-yl)ethylcarbamoyl)-2,3,3a,4,5,5a,5b,6,7,7a,8,11,11a,11b,12,13,13a,13b-octadecahydro-1H-cyclopenta[a]chrysen-9-yl)benzoic acid], for which the half-maximal effective concentration (EC50) was under 100 nM. Same read-out and setting: the result for `CC(C)[C@@H]1CC[C@]2(C(=O)NCCc3ccccn3)CC[C@]3(C)[C@H](CC[C@@H]4[C@@]5(C)CC[C@H](c6ccc(C(=O)O)cc6)C(C)(C)[C@@H]5CC[C@]43C)[C@@H]12` [Example 54, 4-((1S,3aS,5aR,5bR,7aS,9S,11aS,11bR,13aR,13bR)-1-isopropyl-5a,5b,8,8,11a-pentamethyl-3a-(2-(pyridin-2-yl)ethylcarbamoyl)icosahydro-1H-cyclopenta[a]chrysen-9-yl)benzoic acid] reads under 100 nM; that for `C=C(C)[C@@H]1CC[C@]2(C(=O)NCCN(CC(=O)O)c3ccccc3)CC[C@]3(C)[C@H](CC[C@@H]4[C@@]5(C)CC=C(c6ccc(C(=O)O)cc6)C(C)(C)[C@@H]5CC[C@]43C)[C@@H]12` [Example 111, 4-((1R,3aS,5aR,5bR,7aR,11aS,11bR,13aR,13bR)-3a-(2-((carboxymethyl)(phenyl)amino)ethylcarbamoyl)-5a,5b,8,8,11a-pentamethyl-1-(prop-1-en-2-yl)-2,3,3a,4,5,5a,5b,6,7,7a,8,11,11a,11b,12,13,13a,13b-octadecahydro-1H-cyclopenta[a]chrysen-9-yl)benzoic acid], under 100 nM; that for `CC1(C)CC[C@]2(C(=O)NCCCN3CCS(=O)(=O)CC3)CC[C@]3(C)C(=CC[C@@H]4[C@@]5(C)CC=C(c6ccc(C(=O)O)cc6)C(C)(C)[C@@H]5CC[C@]43C)[C@@H]2C1` [Example B2, 4-((4aR,6aR,6bS,8aS,12aS,14aR,14bS)-8a-((3-(1,1-dioxido-4-thiomorpholinyl)propyl)carbamoyl)-4,4,6a,6b,11,11,14b-heptamethyl-1,4,4a,5,6,6a,6b,7,8,8a,9,10,11,12,12a,14,14a,14b-octadecahydro-3-picenyl)benzoic acid], under 100 nM.

Take `C=C(C)[C@@H]1CC[C@]2(C(=O)NCCCN)CC[C@]3(C)[C@H](CC[C@@H]4[C@@]5(C)CC=C(c6ccc(C(=O)O)cc6)C(C)(C)[C@@H]5CC[C@]43C)[C@@H]12` [Example 98, 4-((1R,3aS,5aR,5bR,7aR,11aS,11bR,13aR,13bR)-3a-(3-aminopropylcarbamoyl)-5a,5b,8,8,11a-pentamethyl-1-(prop-1-en-2-yl)-2,3,3a,4,5,5a,5b,6,7,7a,8,11,11a,11b,12,13,13a,13b-octadecahydro-1H-cyclopenta[a]chrysen-9-yl)benzoic acid]: the EC50 was under 100 nM.
